Results as given in patent US10722518B2, “Oxazine derivative for use in the treatment or prevention of cerebral amyloid angiopathy” (Novartis AG, priority 2016, dated 2020).

Test system: amyloid-beta in CD31-positive vessels
Assay: Assessment of CAA in APP23 mice by CD31/NT12 double fluorescence immunohistochemistry and image analysis
Assay type: in vivo, mouse
Procedure: Amyloid plaques were stained using a rabbit anti-Aβ primary antibody (NT12) which recognizes the C-terminal part of the amyloid peptide (the antibody was raised as described in Schrader-Fischer G and Paganetti P A, 1996, and Schrader-Fischer G et al., 1997). The vascular endothelial cells were detected using a rat anti-CD31 antibody (reference DIA310) from Dianova GmbH (Hamburg, Germany). All stainings were performed using the fully automated instrument Ventana Discovery® Ultra (Roche Diagnostics Schweiz AG, Rotkreuz, Switzerland). All chemicals were provided by Roche Diagnostic.
All study animals were used and brain tissue sections of 3 micrometers were freshly cut and collected on SuperFrost+ slides. The tissues sections were de-paraffinized and rehydrated under solvent-free conditions (EZprep solution) followed by antigen retrieval (demasking) performed by heat retrieval cycles for 32 min in a EDTA based buffer (CC1 solution). Subsequently, slides were blocked for 4 min using the DISCOVERY Inhibitor (reference 07017944001 (Roche)). The primary antibody diluted at 1/10′000 in antibody diluent was manually added on tissue sections and incubated for 1 h at room temperature. A short post-fixation (glutaraldehyde at 0.05%) was performed before applying the multimer UltraMap-anti Rabbit HRP ready to use antibody (reference 05269717001) for 16 min.
Detection was performed using the DISCOVERY FITC® following the manufacturer's recommendations. Slides were then heat denaturated at 92° C. for 20 min before a manual application of the second primary antibody (rat anti-CD31 diluted at 1/1′000 in antibody diluent) and incubated for 1 h. Multimer UltraMap-anti-Rat HRP antibody (reference 05891884001) was used for 20 min to detect CD31 in combination with the DISCOVERY Rhodamine kit (reference 07259883001).
The slides were washed and mounted using Prolong® Gold antifade reagent (reference P36931, ThermoFisher, Switzerland) and further scanned with the Hamamatsu slide scanner instrument (NanoZoomer 2.0 HT, scanning software NDP-Scan Vers. 2.5, Hamamatsu Photonics France, Swiss Office, Solothurn, Switzerland) at the 40× objective. The scanning settings were as follows: the exposure time with the DAPI filter was set at 28.5 ms as well as for the FITC filter and TRITC filter (detection of Rhodamine).
For the quantitative plaque and vessel-associated amyloid-beta evaluation based on image analysis, a proprietary image analysis platform (ASTORIA, Automated Stored Image Analysis) was developed based on MS Visual Studio 2010 and many functions from Matrox MIL V9 libraries (Matrox Inc, Quebec, Canada).
For the beta-amyloid plaque and vessel analysis, the following sequence of steps was performed: • Slides were scanned with Hamamatsu Nanozoomer at 40× magnification. […]

[1] = 0.03 g/kg food, 6 months, all CD31+ vessels
[2] = 0.03 g/kg food, 6 months, large CD31-positive vessels
[3] = 0.03 g/kg vs vehicle, all CD31+ vessels
[4] = 0.03 g/kg vs vehicle, large vessels
[5] = 0.03 g/kg vs vehicle, small + medium vessels

C[C@@]1(c2nc(NC(=O)c3ncc(C(F)(F)F)cc3Cl)ccc2F)CO[C@@](C)(C(F)(F)F)C(N)=N1 [Compound 1, N-(6-((3R,6R)-5-amino-3,6-dimethyl-6-(trifluoromethyl)-3,6-dihydro-2H-1,4-oxazin-3-yl)-5-fluoropyridin-2-yl)-3-chloro-5-(trifluoromethyl)picolinamide]
% of large vessels with 0% Aβ (0.03 g/kg food, 6 months): 9.14 ± 9.14% | % of large vessels with 1-10% Aβ (0.03 g/kg food, 6 months): 17.4 ± 1.63% | % of large vessels with 10-25% Aβ (0.03 g/kg food, 6 months): 11.2 ± 1.68% | % of large vessels with 25-50% Aβ (0.03 g/kg food, 6 months): 17.5 ± 2.63% | % of large vessels with 50-75% Aβ (0.03 g/kg food, 6 months): 27.7 ± 1.97% | % of large vessels with >10% Aβ (0.03 g/kg food, 6 months): 73.5 ± 3.4% | % of large vessels with >75% Aβ (0.03 g/kg food, 6 months): 17.0 ± 2.92% | % of small + medium vessels with 0% Aβ (0.03 g/kg food, 6 months): 63.7 ± 2.83% | % of small + medium vessels with 1-10% Aβ (0.03 g/kg food, 6 months): 22.3 ± 2.65% | % of small + medium vessels with 10-25% Aβ (0.03 g/kg food, 6 months): 4.86 ± 0.48% | % of small + medium vessels with 25-50% Aβ (0.03 g/kg food, 6 months): 3.55 ± 0.35% | % of small + medium vessels with 50-75% Aβ (0.03 g/kg food, 6 months): 2.5 ± 0.31% | % of small + medium vessels with >10% Aβ (0.03 g/kg food, 6 months): 14.0 ± 1.01% | % of small + medium vessels with >75% Aβ (0.03 g/kg food, 6 months): 3.11 ± 0.44% | CAA Frequency (number small + medium vessels with >10% Aβ normalized to sample area, *10^7) (0.03 g/kg food, 6 months): 91 ± 5.9 | Number of large CD31+ vessels (normalized to total CD31 positive vessel numbers in %) (0.03 g/kg food, 6 months): 1.89 ± 0.17% | Number of small + medium CD31+ vessels (normalized to total CD31 positive small + medium vessel numbers in %) (0.03 g/kg food, 6 months): 98.1 ± 0.17% | Number small + medium vessels with >10% Aβ, mean ± SEM (0.03 g/kg food, 6 months): 288 ± 21.9 | Total number CD31+ vessels (normalized to total sample area, *10^5), mean ± SEM (0.03 g/kg food, 6 months): 6.52 ± 0.4 | Total vessel-associated NT12 area (normalized to total small + medium CD31+ vessel area) (0.03 g/kg food, 6 months): 0.286 ± 0.0313 | % of vessels with 0% Aβ [1]: 60.3 ± 3.49% | % of vessels with 1-10% Aβ [1]: 23.2 ± 2.6% | % of vessels with 10-25% Aβ [1]: 5.65 ± 0.8% | % of vessels with 25-50% Aβ [1]: 4.06 ± 0.44% | % of vessels with 50-75% Aβ [1]: 3.13 ± 0.35% | % of vessels with >10% Aβ [1]: 16.5 ± 0.76% | % of vessels with >75% Aβ [1]: 3.7 ± 0.55% | CAA Frequency (number vessels with >10% Aβ normalized to sample area, *10^7) [1]: 94 ± 6.5 | Number vessels with >10% Aβ, mean ± SEM [1]: 319 ± 22.2 | Total vessel-associated NT12 area (normalized to total CD31+ area) [1]: 0.65 ± 0.07 | CAA Frequency (number vessels with >10% Aβ normalized to sample area, *10^7) [2]: 9.3 ± 1.0 | Number vessels with >10% Aβ, mean ± SEM [2]: 29 ± 3.0 | Total vessel-associated NT12 area (normalized to total CD31+ area) [2]: 0.79 ± 0.05 | % of large vessels with 0% Aβ, treatment effect vs vehicle (0.03 g/kg vs vehicle): −18% | % of large vessels with 1-10% Aβ, treatment effect vs vehicle (0.03 g/kg vs vehicle): +19% | % of large vessels with 10-25% Aβ, treatment effect vs vehicle (0.03 g/kg vs vehicle): +60% | % of large vessels with 25-50% Aβ, treatment effect vs vehicle (0.03 g/kg vs vehicle): −9% | % of large vessels with 50-75% Aβ, treatment effect vs vehicle (0.03 g/kg vs vehicle): −15% | % of large vessels with >10% Aβ, treatment effect vs vehicle (0.03 g/kg vs vehicle): −1% | % of large vessels with >75% Aβ, treatment effect vs vehicle (0.03 g/kg vs vehicle): +12% | % of small + medium vessels with 0% Aβ, treatment effect vs vehicle (0.03 g/kg vs vehicle): −13% | % of small + medium vessels with 1-10% Aβ, treatment effect vs vehicle (0.03 g/kg vs vehicle): +76% | % of small + medium vessels with 10-25% Aβ, treatment effect vs vehicle (0.03 g/kg vs vehicle): +16% | % of small + medium vessels with 25-50% Aβ, treatment effect vs vehicle (0.03 g/kg vs vehicle): −9% | % of small + medium vessels with 50-75% Aβ, treatment effect vs vehicle (0.03 g/kg vs vehicle): −6% | % of small + medium vessels with >10% Aβ, treatment effect vs vehicle (0.03 g/kg vs vehicle): +1% | % of small + medium vessels with >75% Aβ, treatment effect vs vehicle (0.03 g/kg vs vehicle): 0% | Total small + medium vessel-associated NT12 area (normalized to total CD31+ small + medium vessel area), treatment effect vs vehicle (0.03 g/kg vs vehicle): +6% n.s. | % of vessels with 0% Aβ, treatment effect vs vehicle [3]: −17% | % of vessels with 1-10% Aβ, treatment effect vs vehicle [3]: +82% | % of vessels with 10-25% Aβ, treatment effect vs vehicle [3]: +34% | % of vessels with 25-50% Aβ, treatment effect vs vehicle [3]: −2% | % of vessels with 50-75% Aβ, treatment effect vs vehicle [3]: 0% | % of vessels with >10% Aβ, treatment effect vs vehicle [3]: +12% | % of vessels with >75% Aβ, treatment effect vs vehicle [3]: +12% | CAA Frequency, treatment effect vs vehicle [3]: −4% n.s. | Number vessels with >10% Aβ, treatment effect vs vehicle [3]: −10% n.s. | Total vessel-associated NT12 area (normalized to total CD31+ area), treatment effect vs vehicle [3]: +14% n.s. | CAA Frequency, treatment effect vs vehicle [4]: +20% n.s. | Number vessels with >10% Aβ, treatment effect vs vehicle [4]: +4% n.s. | Total vessel-associated NT12 area (normalized to total CD31+ area), treatment effect vs vehicle [4]: −1% n.s. | CAA Frequency, treatment effect vs vehicle [5]: +2% n.s. | Number vessels with >10% Aβ, treatment effect vs vehicle [5]: −12% n.s.
